Laboratory results: patent US6994981B2, “Modulators of paraptosis and related methods” (The Buck Institute, priority 2002, dated 2006)

Assays:
[1] = test system: caspases, calpains, proteasome; assay: Protease activation during SP-induced cell death, substrate hydrolysis in cytosolic extracts of NK1R-transfected 293T cells; type: biochemical, human
Protocol: Preparation of cell-free extract for kinetic studies: 293T cells seeded at the density of 2 million cells per 10 cm dish were transfected with NK1R cDNA using Lipofectamine 2000 (Gibco) according the instructions provided by the manufacturer. After 24 hr 10 nM SP was added to half of the culture dishes. At 24 hr later the cells were washed with ice cold PBS and collected with a cell scraper. The cells pelleted at 700×g for 4 min were resuspended in cell lysis buffer at pH 7.4 containing 1 mM dithiothreitol at a ratio of 1:1 (v/v). After 30 min on ice the swelled cells were disrupted with 20 strokes using a 27 gauge needle and further spun at 16,000×g for 30 min. The pellet was discarded and the supernatant which represents the cytosolic fraction was aliquoted and stored at −80° C. or used in the kinetic studies. The protein concentration was determined using the Bradford assay (Pierce).
For kinetic studies, the proteolytic activities were followed fluorometrically by monitoring AFC or AMC release from 100 μM of the corresponding substrates (Enzyme Systems Products): Caspase-1 like, Ac-YVAD-AFC; caspase-2, Ac-VDVAD-AFC; caspases-3 like, Ac-DEVD-AFC; caspase-6, Ac-VEID-AFC; caspase-8, Ac-IETD-AFC; caspase-9, Ac-LEHD-AFC. Calpain activity was monitored with 100 μM Suc-LY-AFC (succinyl-Leu-Tyr-7-amino-4-methylcoumarin, Enzyme Systems Products) at 5 μM and 5 mM CaCl2. The chymotrypsin activity of the proteasome was followed with 100 μM Suc-LLVY-AFC (succinyl-Leu-Leu-Val-Tyr-7-amino-4-methylcoumarin, Enzyme Systems Products), and cathepsins were assayed using 20 μM Z-FR-AMC (Benzyloxycarbonyl-Phe-Arg-7-amino-4-methylcoumarin, Bachem). A 10 μl aliquot of extract in the presence or absence of SP was added to 90 μl of substrate at the appropriate concentration and pH. The reaction was continuously monitored during 30 min and 37° C. in a fluorescence microplate reader (Molecular Devices). The instrument was set at excitation and emission wavelengths of 405 and 510 for AFC releasing group, and 370 and 460 nm, for AMC releasing group, respectively. The steady-state hydrolysis rates were obtained from the linear part of the curves.

[2] = test system: ERK-1/2; assay: Western blot of ERK-1/2 phosphorylation in 293T cells expressing NK1R; type: cell-based, human; conditions: 293T cells expressing the wild type NK1R, but not NK1Rd342
Protocol: (§1) For the transfected 293T cells, cells were washed with cold PBS after incubation with SP the time indicate and homogenized on lysis buffer (150 mM NaCl, 1% Triton X-100, 50 mM Tris HCL pH8.0). Cytoplasmic extracts were collected after 10 min centrifugation at 14,000 rcf. Total amount of protein was quantified by Bradford assay and electrophoresis of equal amounts of total protein was performed on SDS-polyacrylamide gels. Separated proteins were transferred to polyvinylidene fluoride membranes at 4° C. for Western blot analysis. Membranes were probed with a 1:1000 dilution of anti-ERK-1/2 or anti phospho-ERK-1/2 (BioSource). The blots were incubated in a horseradish peroxidase coupled secondary antibody for 1 h followed by enhanced chemiluminescence detection of the proteins with […]™ ECL detection (Amersham, Arlington Heights, Ill.). For striatal neurons, total ERK-1/2 was immunoprecipitated using superparamagnetic Microbeads conjugated to protein A, following manufacture's instructions (MACS, Miltenyi Biotec), and then developed by Western blot against either anti-ERK-1/2 or anti phospho-ERK-1/2.

[3] = test system: ERK-1/2; assay: Western blot of ERK-1/2 phosphorylation in striatal neurons; type: cell-based, rat; conditions: after 10–30 min of SP stimulation; total ERK-1/2 unchanged
Protocol: as §1

[4] = test system: total cellular cAMP; assay: cAMP quantification in 293T cells overexpressing NK1R; type: cell-based, human; conditions: compared with 10 μM forskolin
Protocol: Total cellular cAMP was measured using the BiotrakBIOTRAK™ non-acetylation enzymeimmunoassay system (Amersham Phramacia Biotech), following manufacturer's instructions. Forskolin (Sigma) was added at 10 μM.

“SP: eleven amino acid neurotransmitter of the tachykinin family, ligand of NK1R” was tested, and the “activation of calpains and chymotrypsin-like activity of the proteasome” value [1] was “no significant effect on the rates of substrate hydrolysis”, the “hydrolysis of substrates for initiator and executioner caspases” value ([1]; 10 nM SP, 24 hr) was “no hydrolysis of substrates” and the “DEVDase activity in response to SP stimulation” value ([1]; extracts with granzyme B added) was “no significant difference”. For the same substance, the “activation of ERK-1/2 by SP” value [2] was “activation of ERK-1/2”, the “amount of phosphorylated ERK-1/2” value [3] was “increase” and the “production of cAMP in response to SP” value [4] was “Neither the wild type nor the mutant NK1Rd342 overexpressed in 293T cells generated a significant amount of cAMP”.
